Ki data for three compounds are collected here from ChEMBL document CHEMBL1125700, “Conformational properties of semirigid antipsychotic drugs: the pharmacophore for dopamine D-2 antagonist activity” (J Med Chem, 1991).

The target in assay [1] is T1, D(1A) dopamine receptor (Homo sapiens, UniProt P21728). The assay can be described thus: Binding affinity determined in radioreceptor binding assay by using [3H]SCH-23390 radioligand against dopamine receptor D1.
Assay [2] has as its target T2, Alpha-1A adrenergic receptor (Homo sapiens, UniProt P35348).
T2 sequence (P35348 whole entry): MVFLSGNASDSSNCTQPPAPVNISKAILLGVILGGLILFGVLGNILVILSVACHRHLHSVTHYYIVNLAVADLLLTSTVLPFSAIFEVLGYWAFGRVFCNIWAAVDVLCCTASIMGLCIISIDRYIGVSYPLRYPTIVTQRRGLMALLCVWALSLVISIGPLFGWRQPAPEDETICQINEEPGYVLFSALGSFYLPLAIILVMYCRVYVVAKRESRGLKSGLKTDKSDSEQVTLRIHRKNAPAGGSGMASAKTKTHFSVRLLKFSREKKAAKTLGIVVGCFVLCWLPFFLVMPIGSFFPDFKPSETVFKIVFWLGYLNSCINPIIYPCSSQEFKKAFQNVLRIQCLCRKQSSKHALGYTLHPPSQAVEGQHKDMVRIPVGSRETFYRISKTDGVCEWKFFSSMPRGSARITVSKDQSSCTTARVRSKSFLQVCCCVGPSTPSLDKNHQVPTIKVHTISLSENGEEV
The assay can be described thus: The compound was tested for binding affinity against Alpha-1 adrenergic receptor using WB-4101 as radioligand.

Assay [3] deals with T3, Sigma non-opioid intracellular receptor 1 (Homo sapiens, UniProt Q99720). The assay is described as follows: The compound was tested for binding affinity against sigma receptor using DTG as radioligand.
T3 sequence (Q99720 whole entry): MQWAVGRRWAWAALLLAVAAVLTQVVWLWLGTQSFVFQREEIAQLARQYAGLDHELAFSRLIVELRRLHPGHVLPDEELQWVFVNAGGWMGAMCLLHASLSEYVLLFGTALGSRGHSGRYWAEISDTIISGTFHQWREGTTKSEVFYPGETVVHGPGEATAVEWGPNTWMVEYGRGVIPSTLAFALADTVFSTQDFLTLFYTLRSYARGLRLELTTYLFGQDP
Assay [4] addresses Serotonin 2 (5-HT2) receptor (Homo sapiens, UniProt P41595+P28223+P28335). The assay is described as follows: The compound was tested for binding affinity against 5-hydroxytryptamine 2 receptor using ketanserin as radioligand. Format: protein assay.
The target of assay [5] is Muscarinic acetylcholine receptor. The assay is described as follows: The compound was tested for binding affinity against muscarinic acetylcholine receptor using QNB as radioligand. It counts as protein assay.
The target of assay [6] is T4, D(2) dopamine receptor (Homo sapiens, UniProt P14416). The assay can be described thus: The compound was tested for binding affinity against dopamine receptor D2 using raclopride as radioligand.
T4 sequence (P14416 whole entry): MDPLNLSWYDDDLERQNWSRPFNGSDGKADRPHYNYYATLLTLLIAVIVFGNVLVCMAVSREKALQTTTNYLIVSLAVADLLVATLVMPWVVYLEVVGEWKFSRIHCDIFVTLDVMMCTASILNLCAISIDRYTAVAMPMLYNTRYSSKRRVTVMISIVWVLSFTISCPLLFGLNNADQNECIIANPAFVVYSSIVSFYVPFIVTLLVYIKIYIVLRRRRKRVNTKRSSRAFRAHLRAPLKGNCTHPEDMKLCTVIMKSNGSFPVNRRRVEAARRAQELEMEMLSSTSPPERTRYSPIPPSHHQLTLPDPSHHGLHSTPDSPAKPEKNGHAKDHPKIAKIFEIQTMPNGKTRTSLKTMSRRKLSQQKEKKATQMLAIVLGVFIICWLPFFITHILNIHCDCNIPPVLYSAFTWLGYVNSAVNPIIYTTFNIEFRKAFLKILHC
Assay [7] concerns the target Muscarinic acetylcholine receptor. The assay is described as follows: The compound was tested for binding affinity against Muscarinic acetylcholine receptor using QNB as radioligand. Format: protein assay.
Assay [8] concerns the target T3, Sigma non-opioid intracellular receptor 1. The assay can be described thus: The compound was tested for binding affinity against Sigma opioid receptor using DTG as radioligand.
For assay [9], the target named is T4, D(2) dopamine receptor. The assay is described as follows: The compound was tested for binding affinity against Dopamine receptor D2 using raclopride as radioligand.
For assay [10], the target named is T1, D(1A) dopamine receptor. The assay can be described thus: The compound was tested for binding affinity against Dopamine receptor D1 using SCH-23390 as radioligand.

“And” between values parts separate entries of the source, which are not always exact repeats. Equal values may be shown once.

T1 sequence (P21728 whole entry): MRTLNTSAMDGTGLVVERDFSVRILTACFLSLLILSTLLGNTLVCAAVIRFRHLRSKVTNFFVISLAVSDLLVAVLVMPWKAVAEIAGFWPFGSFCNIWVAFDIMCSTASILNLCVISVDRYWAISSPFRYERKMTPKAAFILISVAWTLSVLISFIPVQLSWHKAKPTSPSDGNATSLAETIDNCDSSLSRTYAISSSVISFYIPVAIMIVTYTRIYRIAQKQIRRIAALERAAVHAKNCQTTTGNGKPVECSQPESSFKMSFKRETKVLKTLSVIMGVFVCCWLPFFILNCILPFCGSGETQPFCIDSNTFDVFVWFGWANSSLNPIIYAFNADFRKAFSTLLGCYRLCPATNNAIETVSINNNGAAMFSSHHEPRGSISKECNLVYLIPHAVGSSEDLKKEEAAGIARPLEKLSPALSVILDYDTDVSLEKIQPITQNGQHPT

A word on the Ki: it is the equilibrium dissociation constant of an inhibitor or competing ligand from its target. `CN(C)C1C=CC2(CC1)c1ccccc1C=Cc1ccc(Cl)cc12` (centres undefined): the Ki was determined as 0.0003 µM at D(1A) dopamine receptor [1]; 0.036 µM in assay [2]; 1.6 µM in assay [3]; 0.001 µM in [4]; 0.0043 µM in assay [5]; 0.00066 µM at D(2) dopamine receptor [6].

Consider `CN(C)C1C=CC2(CC1)c1ccccc1C=Cc1ccc(Cl)cc12` (single isomer, unassigned; enantiomer 2), for which the Ki was 0.0072 µM in assay [7]; 0.8 µM in [8]; 0.061 µM in assay [2]; 0.0013 µM in [4]; 0.0065 µM on D(2) dopamine receptor [9]; 0.0031 µM at D(1A) dopamine receptor [10].

Turning to `CN(C)C1C=CC2(CC1)c1ccccc1CCc1ccc(Cl)cc12` (centres undefined), the Ki in [3] is 0.55 µM and 1.4 µM; in assay [5], 0.094 µM and 0.043 µM.
